This is an account of results in patent US6869929B2, “Use of transcription factors for treating inflammation and other diseases” (Beth Israel Deaconess Medical Center, priority 2000, dated 2005).

Common to all, as to type: cell-based, human
The subject of one test is COL2A1. The test can be described thus: COL2A1 mRNA time course in C-28/I2 chondrocytes. The settings on record: earlier time points.
Test [1] relates to ESE-1. The test can be described thus: ESE-1 mRNA time course in C-28/I2 chondrocytes. The settings on record: 10 μg/ml, absence or presence of IL-1β, up through 8 h. How it is done: The immortalized human chondrocyte cell lines T/C-28a2 and C-28/I2 (Goldring M B, et al., J Clin Invest 1994;94:2307-16) were cultured in Dulbecco's modified Eagle's medium (DMEM)/Ham's F12 (1/1, v/v; Life Technologies) containing 10% fetal calf serum (FCS; Biowhitaker) and passaged using trypsin-EDTA solution (Life Technologies) at >95% confluency every 5 to 6 days. The temperature-sensitive tsT/AC62 cells (Robbins J R, et al., Arthritis Rheum 2000;43:2189-201) were grown in DMEM/Ham's F12 (1/1, v/v) supplemented with 10% FCS, 10 IU/ml penicillin, 100 μg/ml streptomycin and maintained at 32° C. in 5% CO2 and the culture medium was changed every 3 to 4 days. The cells were grown to confluence and passaged by treatment with trypsin/EDTA as described previously (Robbins J R, et al., Arthritis Rheum 2000;43:2189-201). Suspensions of tsT/AC62 were embedded in alginate and cultured for X days. […]
We first examined the time course of ESE-1 expression at the mRNA level in the C-28/I2 human chondrocyte cell line after treatment with IL-1β for periods of time between 0.5 and 24 h (FIG. 17). In IL-1β-treated quiescent cultures, ESE-1 mRNA was detected at 30 min, increased to peak levels within 4 h, and declined gradually thereafter. […]

In test [2] the test system is ESE-1. As to the kind of experiment: ESE-1 mRNA Northern blot in LB-12 osteoblasts. The following applies: LB-12 cells. The method, then:
U-87 Mg and U-138 Mg (human glioma), THP-1 (human monocytic), RAW 264.7 (murine monocytic), LB-12 (human osteoblast-like large T antigen transformed bone marrow stromal cells), and human chondrocytes were grown and treated with cytokines as described (Apperley, J., et al. 1990. J Bone Mineral Res. 5:S93; Goldring, M. B., et al. 1994. J Clin Invest 94:2307-16; Goldring, S. R., et al. 1983. J Bone Joint Surg 65:575-84; Libermann, T. A., et al. 1987. Embo J. 6:1627-1632).
Total RNA was harvested using QIAshreder (Qiagen) and RNeasy® Mini Kit (Quiagen) or Trizol (Gibco BRL). Poly A^+ RNA was prepared with MicroPoly(A) Pure (Ambion). Northern blots (5 μg total RNA) were hybridized using a full length ESE-1 cDNA probe as described (Oettgen, P., et al. et al. 1997, Mol Cell Biol 17:4419-33.).
Osteoblasts, the bone cells responsible for bone formation, represent another connective tissue cell target of inflammatory cytokines in joint disorders (Bogoch, E. R., and E. Moran. 1998, Can J Surg 41:264-71). […] LB-12 cells were incubated for different times in the absence or presence of IL-1β. […] Since the rapid, but transient induction of ESE-1 resembles that of immediate early genes, we tested the effect of the protein synthesis inhibitor cycloheximide which superinduces expression of certain genes due to mRNA stabilization. Cycloheximide alone had no effect, but superinduced IL-1β-mediated ESE-1 mRNA expression (FIG. 11d).

Consider `C[C@@H]1C[C@@H]([C@H](O)CC2CC(=O)NC(=O)C2)C(=O)[C@@H](C)C1` [Cycloheximide, cycloheximide], for which, in the test with COL2A1, the “IL-1β inhibition of COL2A1 mRNA in presence of agent” value is “appeared to abolish this inhibition”. The “ESE-1 mRNA levels in presence of agent” value in the test on ESE-1 [1] is “stabilized the levels of ESE-1 mRNA and augmented control and IL-1β-stimulated expression”. Moreover, the “IL-1β-mediated ESE-1 mRNA expression in presence of agent” value in the test on ESE-1 [2] is “superinduced”. In addition, the “ESE-1 mRNA expression, agent alone” value in the test on ESE-1 [2] (1, 2, 6, 24 hours) is given as “had no effect”.
